The structures appear in SMILES notation. pKd: −log10 of the molar value. Some results are limits rather than exact numbers.

For orientation: pKd means the negative decadic logarithm of the Kd, by convention in mol/L. High values mean a low Kd, low ones a high Kd.

This test concerns the target Trp operon repressor (Escherichia coli (strain K12), UniProt P0A881). In words: Binding Assay. An excerpt: Binding assay of L-trptophan and analogues to trp aporepressor

In turn, `NC(Cc1c[nH]c2ccc(O)cc12)C(=O)O` [5-Hydroxy-L-tryptophan, 22] showed a pKd of 2.55.
In turn, `NC(=O)C(N)Cc1c[nH]c2ccccc12` [L-Tryptophanamide, 9] showed a negative-log Kd (pKd) of 4.56. This pKd is 2.01 log units higher than that of the molecule before.
For the molecule `COc1ccc2[nH]cc(CC(N)C(=O)O)c2c1` [5-Methoxyu-L-tryptophan, 11], the pKd was 4.51. The pKd values of the last two molecules are within 0.2 log units of each other.
Under `OCCc1c[nH]c2ccccc12` [Tryptaphol, 6] stands 4.63.
In turn, `O=C(O)C(O)Cc1c[nH]c2ccccc12` [L-Indole-3-lactic acid, 13] had a pKd of 4.45.
Consider `COC(=O)C(N)Cc1c[nH]c2ccccc12` [L-Tryptophan methyl ester, 14], for which the pKd was 4.43.
For `O=C(O)Cc1c[nH]c2ccccc12` [Indole-3-acetic acid, 16] the value was 4.14; for `NC(Cc1ccccc1)C(=O)O` [L-Phenylalanine, 23], below 2.52.
`NC(Cc1c[nH]c2ncccc12)C(=O)O` [7-Aza-L-tryptophan, 21] showed a negative-log Kd (pKd) of 3.33.
For `c1ccc2c(c1)CCN2` [Indoline, 19] the value was 3.76; for `O=C(O)/C=C/c1c[nH]c2ccccc12` [3-Beta-Indole-acrylic acid (Tran), 1], 6.29.
Consider `O=CNC(Cc1c[nH]c2ccccc12)C(=O)O` [N-Formyl-L-tryptophan, 18], for which the negative-log Kd (pKd) is 3.93.
The molecule `NC(Cc1c[nH]c2cc([N+](=O)[O-])ccc12)C(=O)O` [6-Nitro-L-tryptophan, 17] had a pKd of 4.12.
`c1ccc2[nH]ccc2c1`: the negative logarithm of the Kd (pKd) was 4.60.
Turning to `Cc1ccc2[nH]cc(CC(N)C(=O)O)c2c1` [5-Methyl-L-tryptophan, 2], the pKd was 5.49. Against the preceding molecule, the pKd is 0.89 log units higher.
`O=C(O)CCc1c[nH]c2ccccc12` [Indole-3-propionic acid, 4] gave a pKd of 5.01.
On to `NCCc1c[nH]c2ccccc12` [Tryptamine, 15], for which the pKd is 4.39.
In turn, `Cn1cc(CC(N)C(=O)O)c2ccccc21` [1-Methyl-L-tryptophan, 8] had a pKd of 4.58. This pKd and that of the molecule before are within 0.2 log units of each other.
Regarding `O=C(O)CCCc1c[nH]c2ccccc12` [Indole-3-butyric acid, 3], the pKd was 5.26.
As for `Cc1ccc2[nH]cc(CCN)c2c1` [5-Methyl-tryptamine, 10], the pKd was 4.54.
